Assay results published in patent US20090298820A1, “3-SUBSTITUTED-1H-PYRROLO[2,3-B]PYRIDINE AND 3-SUBSTITUTED-1H-PYRROLO[3,2-B]PYRIDINE COMPOUNDS, THEIR USE AS MTOR KINASE AND PI3 KINASE INHIBITORS, AND THEIR SYNTHESES” (Wyeth, priority 2008, published 2009).
pIC50: −log10 of the molar value. Where a name gives a salt, the structure may show the parent alone. Read-outs that look alike come from different tables or passages of the source.

Columns and labels:
PI3Kα = PI3Kα (Homo sapiens, UniProt P42336); experiment: PI3K-alpha fluorescence polarization assay; assay type: biochemical; settings: read-out: PI3Kα Median IC50
Sequence of PI3Kα (P42336 whole entry, species assumed): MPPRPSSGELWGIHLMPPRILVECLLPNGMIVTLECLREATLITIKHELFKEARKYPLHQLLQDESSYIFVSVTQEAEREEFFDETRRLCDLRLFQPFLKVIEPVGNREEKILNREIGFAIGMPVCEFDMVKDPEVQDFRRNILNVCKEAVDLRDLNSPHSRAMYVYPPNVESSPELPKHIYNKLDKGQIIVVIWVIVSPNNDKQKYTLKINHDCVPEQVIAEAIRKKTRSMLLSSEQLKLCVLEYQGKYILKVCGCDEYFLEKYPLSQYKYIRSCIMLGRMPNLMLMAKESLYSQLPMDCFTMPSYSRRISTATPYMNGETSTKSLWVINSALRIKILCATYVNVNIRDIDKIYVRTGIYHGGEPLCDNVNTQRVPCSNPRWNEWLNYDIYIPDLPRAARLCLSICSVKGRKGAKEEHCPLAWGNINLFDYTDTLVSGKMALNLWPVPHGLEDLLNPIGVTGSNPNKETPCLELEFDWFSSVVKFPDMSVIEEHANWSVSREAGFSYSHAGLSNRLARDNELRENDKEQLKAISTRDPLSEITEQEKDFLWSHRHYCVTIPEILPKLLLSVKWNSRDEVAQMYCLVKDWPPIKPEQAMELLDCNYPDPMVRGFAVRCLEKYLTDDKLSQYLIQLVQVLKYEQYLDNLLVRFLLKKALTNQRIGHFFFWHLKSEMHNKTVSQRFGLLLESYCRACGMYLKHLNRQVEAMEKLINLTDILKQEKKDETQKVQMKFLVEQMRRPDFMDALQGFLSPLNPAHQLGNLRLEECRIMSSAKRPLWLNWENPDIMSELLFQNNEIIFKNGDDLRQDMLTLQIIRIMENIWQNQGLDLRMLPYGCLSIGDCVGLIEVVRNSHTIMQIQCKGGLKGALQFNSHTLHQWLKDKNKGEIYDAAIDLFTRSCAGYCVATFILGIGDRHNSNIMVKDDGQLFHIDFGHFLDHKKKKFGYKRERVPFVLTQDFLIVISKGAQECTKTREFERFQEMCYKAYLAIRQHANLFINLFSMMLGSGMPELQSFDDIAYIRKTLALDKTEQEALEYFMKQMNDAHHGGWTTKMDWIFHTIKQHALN
Sequence of PI3Kα (P27986 whole entry partner, species assumed): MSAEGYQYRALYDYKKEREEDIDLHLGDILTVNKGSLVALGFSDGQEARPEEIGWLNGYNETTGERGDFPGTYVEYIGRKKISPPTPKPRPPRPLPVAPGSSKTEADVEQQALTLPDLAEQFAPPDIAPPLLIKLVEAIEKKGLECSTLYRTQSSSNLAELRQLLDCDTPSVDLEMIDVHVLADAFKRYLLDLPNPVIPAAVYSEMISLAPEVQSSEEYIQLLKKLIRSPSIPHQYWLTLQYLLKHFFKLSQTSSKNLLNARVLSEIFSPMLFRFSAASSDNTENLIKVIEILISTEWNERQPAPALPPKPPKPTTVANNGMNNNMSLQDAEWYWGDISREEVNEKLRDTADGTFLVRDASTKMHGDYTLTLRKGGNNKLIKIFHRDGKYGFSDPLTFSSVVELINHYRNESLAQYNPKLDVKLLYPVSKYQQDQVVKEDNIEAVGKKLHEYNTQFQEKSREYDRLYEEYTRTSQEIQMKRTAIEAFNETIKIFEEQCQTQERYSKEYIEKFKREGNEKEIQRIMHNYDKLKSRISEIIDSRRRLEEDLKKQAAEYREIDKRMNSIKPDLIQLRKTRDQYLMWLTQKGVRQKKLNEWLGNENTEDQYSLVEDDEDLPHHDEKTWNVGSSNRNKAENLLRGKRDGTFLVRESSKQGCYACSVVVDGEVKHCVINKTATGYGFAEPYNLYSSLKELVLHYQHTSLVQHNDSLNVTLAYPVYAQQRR

PI3Kγ = PI3Kγ (Homo sapiens, UniProt P48736); experiment: PI3K-gamma fluorescence polarization assay; assay type: biochemical; settings: read-out: PI3Kγ Median IC50
Sequence of PI3Kγ (P48736 whole entry, species assumed): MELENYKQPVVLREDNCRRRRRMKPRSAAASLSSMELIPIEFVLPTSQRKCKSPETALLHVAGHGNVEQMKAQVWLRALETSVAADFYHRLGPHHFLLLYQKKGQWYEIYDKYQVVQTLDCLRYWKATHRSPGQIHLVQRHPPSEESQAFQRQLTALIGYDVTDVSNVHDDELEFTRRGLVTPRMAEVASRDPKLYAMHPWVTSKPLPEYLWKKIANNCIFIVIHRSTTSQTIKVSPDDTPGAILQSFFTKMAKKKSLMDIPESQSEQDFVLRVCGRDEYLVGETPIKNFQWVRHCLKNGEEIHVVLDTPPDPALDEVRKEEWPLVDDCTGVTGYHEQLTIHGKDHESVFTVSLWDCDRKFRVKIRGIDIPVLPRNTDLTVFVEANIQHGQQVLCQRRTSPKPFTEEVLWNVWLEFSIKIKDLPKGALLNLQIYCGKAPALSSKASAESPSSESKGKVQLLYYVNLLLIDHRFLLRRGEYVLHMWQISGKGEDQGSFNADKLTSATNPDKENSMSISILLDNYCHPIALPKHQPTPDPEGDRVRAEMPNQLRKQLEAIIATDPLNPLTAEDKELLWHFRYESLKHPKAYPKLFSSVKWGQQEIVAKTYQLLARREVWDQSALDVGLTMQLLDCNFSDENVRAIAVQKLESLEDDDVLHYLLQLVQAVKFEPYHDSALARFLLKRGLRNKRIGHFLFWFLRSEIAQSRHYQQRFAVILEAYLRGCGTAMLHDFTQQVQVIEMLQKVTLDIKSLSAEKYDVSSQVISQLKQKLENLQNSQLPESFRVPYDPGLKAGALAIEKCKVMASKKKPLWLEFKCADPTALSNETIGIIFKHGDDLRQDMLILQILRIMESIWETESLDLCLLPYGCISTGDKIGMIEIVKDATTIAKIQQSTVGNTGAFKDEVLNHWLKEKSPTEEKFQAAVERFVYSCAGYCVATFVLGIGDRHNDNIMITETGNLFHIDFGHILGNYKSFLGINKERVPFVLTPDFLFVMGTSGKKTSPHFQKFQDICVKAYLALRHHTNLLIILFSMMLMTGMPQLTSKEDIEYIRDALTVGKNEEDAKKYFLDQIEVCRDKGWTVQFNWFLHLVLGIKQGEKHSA

mTOR = mTOR (Homo sapiens, UniProt P42345); experiment: mTOR enzyme assay (DELFIA format, His6-S6K substrate); assay type: biochemical
[1] = read-out: mTOR Kinase Median IC50

Row | SMILES | pIC50 (PI3Kα) | pIC50 (PI3Kγ) | pIC50 (mTOR; [1]) | melting point | pIC50 (mTOR)
1 | Cn1cc(/C=C2\Oc3cc(O)cc(O)c3C2=O)c2c(-c3cncnc3)ccnc21 [Compound 62, (2Z)-4,6-dihydroxy-2-[(1-methyl-4-pyrimidin-5-yl-1H-pyrrolo[2,3-b]pyridin-3-yl)methylene]-1-benzofuran-3(2H)-one] | – | – | 8.37 | 340 °C | –
2 | COCCN(CCOC)C(=O)C1CCN(c2ccnc3c2c(/C=C2\Oc4ccc(NC(=O)Nc5cccnc5)cc4C2=O)cn3C)CC1 [Compound 251, N,N-bis(2-methoxyethyl)-1-{1-methyl-3-[(Z)-{3-oxo-5-[(pyridin-3-ylcarbamoyl)amino]-1-benzofuran-2(3H)-ylidene}methyl]-1H-pyrrolo[2,3-b]pyridin-4-yl}piperidine-4-carboxamide] | 5.39 | 5.25 | 7.80 | 206 to 210 °C | –
3 | Cn1cc(/C=C2\Oc3cccc(O)c3C2=O)c2c(N3CCC(C(=O)N4C5CCCC4COC5)CC3)ccnc21 [Compound 312, (2Z)-4-hydroxy-2-({1-methyl-4-[4-(3-oxa-9-azabicyclo[3.3.1]non-9-ylcarbonyl)piperidin-1-yl]-1H-pyrrolo[2,3-b]pyridin-3-yl}methylidene)-1-benzofuran-3(2H)-one] | 7.17 | 6.34 | 8.49 | 210 to 218 °C | –
4 | Cn1cc(/C=C2\Oc3ccc(C(=O)O)cc3C2=O)c2c(-c3ccccc3)ccnc21 [Compound 176, (2Z)-2-[(1-methyl-4-phenyl-1H-pyrrolo[2,3-b]pyridin-3-yl)methylidene]-3-oxo-2,3-dihydro-1-benzofuran-5-carboxylic acid] | < 5.00 | < 5.00 | 6.35 | 329 to 342 °C | –
5 | CN1CCN(CCNC(=O)Nc2ccc3c(c2)C(=O)/C(=C/c2cn(C)c4nccc(N5CC6CCC(C5)O6)c24)O3)CC1 [Compound 194, 1-[(2Z)-2-{[1-methyl-4-(8-oxa-3-azabicyclo[3.2.1]oct-3-yl)-1H-pyrrolo[2,3-b]pyridin-3-yl]methylidene}-3-oxo-2,3-dihydro-1-benzofuran-5-yl]-3-[2-(4-methylpiperazin-1-yl)ethyl]urea] | 6.63 | 6.33 | 7.47 | 170 to 172 °C | –
6 | CNC(=O)Nc1ccc2c(c1)C(=O)/C(=C/c1cn(C)c3nccc(N4CC5CCC(C4)O5)c13)O2 [Compound 131, 1-methyl-3-[(2Z)-2-{[1-methyl-4-(8-oxa-3-azabicyclo[3.2.1]oct-3-yl)-1H-pyrrolo[2,3-b]pyridin-3-yl]methylene}-3-oxo-2,3-dihydro-1-benzofuran-5-yl]urea] | 6.24 | 6.25 | 8.02 | 247 to 255 °C | –
7 | Cn1cc(/C=C2\Oc3ccc(NC(=O)Nc4cccnc4)cc3C2=O)c2c(N3CCC(C(=O)N4C5CCC4COC5)CC3)ccnc21 [Compound 292, 1-[(2Z)-2-({1-methyl-4-[4-(3-oxa-8-azabicyclo[3.2.1]oct-8-ylcarbonyl)piperidin-1-yl]-1H-pyrrolo[2,3-b]pyridin-3-yl}methylidene)-3-oxo-2,3-dihydro-1-benzofuran-5-yl]-3-pyridin-3-ylurea] | 5.46 | < 5.00 | 8.27 | 197 to 203 °C | –
8 | CN(C)C(=O)C1CCN(c2ccnc3c2c(/C=C2\Oc4ccc(NC(=O)C(F)(F)F)cc4C2=O)cn3C)CC1 [Compound 163, N,N-dimethyl-1-{1-methyl-3-[(Z)-{3-oxo-5-[(trifluoroacetyl)amino]-1-benzofuran-2(3H)-ylidene}methyl]-1H-pyrrolo[2,3-b]pyridin-4-yl}piperidine-4-carboxamide] | 5.25 | < 5.00 | – | 236 to 240 °C | –
9 | CCOC(=O)Nc1ccc2c(c1)C(=O)/C(=C/c1cn(C)c3nccc(N4CCC(C(=O)N(C)C)CC4)c13)O2 (as salt: Na) [Compound 171, ethyl[(2Z)-2-({4-[4-(dimethylcarbamoyl)piperidin-1-yl]-1-methyl-1H-pyrrolo[2,3-b]pyridin-3-yl}methylidene)-3-oxo-2,3-dihydro-1-benzofuran-5-yl]carbamate] | – | – | – | 162 to 167 °C | –
10 | CNC(=O)Nc1ccc2c(c1)C(=O)/C(=C/c1cn(C)c3nccc(-c4ccc(C(=O)N5CCOCC5)cc4)c13)O2 [Compound 179, 1-methyl-3-[(2Z)-2-({1-methyl-4-[4-(morpholin-4-ylcarbonyl)phenyl]-1H-pyrrolo[2,3-b]pyridin-3-yl}methylidene)-3-oxo-2,3-dihydro-1-benzofuran-5-yl]urea] | 6.60 | 6.24 | 7.82 | – | –
11 | CN(C(=O)C1CCN(c2ccnc3c2c(C=C2Oc4ccc(NC(=O)Nc5cccnc5)cc4C2=O)cn3C)CC1)C1CCS(=O)(=O)C1 (centres unmarked) [Compound 211, N-(1,1-dioxidotetrahydrothiophen-3-yl)-N-methyl-1-[1-methyl-3-({3-oxo-5-[(pyridin-3-ylcarbamoyl)amino]-1-benzofuran-2(3H)-ylidene}methyl)-1H-pyrrolo[2,3-b]pyridin-4-yl]piperidine-4-carboxamide] | < 5.00 | < 5.00 | 7.94 | – | –
12 | CN(C)CCOc1ccc(NC(=O)Nc2ccc3c(c2)C(=O)/C(=C/c2cn(C)c4nccc(N5CC6CCC(C5)O6)c24)O3)cc1 [Compound 220, 1-{4-[2-(dimethylamino)ethoxy]phenyl}-3-[(2Z)-2-{[1-methyl-4-(8-oxa-3-azabicyclo[3.2.1]oct-3-yl)-1H-pyrrolo[2,3-b]pyridin-3-yl]methylidene}-3-oxo-2,3-dihydro-1-benzofuran-5-yl]urea] | 6.04 | < 5.00 | 7.20 | – | –
13 | CNC(=O)Nc1ccc2c(c1)C(=O)/C(=C/c1cn(CCN3CCN(C)CC3)c3ncc(OC)cc13)O2 [Compound 120, 1-[(2Z)-2-({5-methoxy-1-[2-(4-methylpiperazin-1-yl)ethyl]-1H-pyrrolo[2,3-b]pyridin-3-yl}methylene)-3-oxo-2,3-dihydro-1-benzofuran-5-yl]-3-methylurea] | 7.46 | 5.62 | – | – | 6.55
14 | CC(C)NC(=O)Nc1ccc2c(c1)C(=O)/C(=C/c1cn(C)c3nccc(N4CCC(C(=O)N(C)C)CC4)c13)O2 [Compound 288, N,N-dimethyl-1-(1-methyl-3-{(Z)-[5-{[(1-methylethyl)carbamoyl]amino}-3-oxo-1-benzofuran-2(3H)-ylidene]methyl}-1H-pyrrolo[2,3-b]pyridin-4-yl)piperidine-4-carboxamide] | 5.83 | 5.42 | 7.14 | – | –

The next lines start with results.

Row | pIC50 (PI3Kα) | pIC50 (PI3Kγ) | pIC50 (mTOR; [1]) | melting point | SMILES | pIC50 (mTOR)
15 | 7.62 | 6.80 | 8.72 | 136 to 140 °C | Cn1cc(/C=C2\Oc3cccc(O)c3C2=O)c2c(N3CCC(C(=O)N4CCN(CCO)CC4)CC3)ccnc21 [Compound 307, (2Z)-4-hydroxy-2-{[4-(4-{[4-(2-hydroxyethyl)piperazin-1-yl]carbonyl}piperidin-1-yl)-1-methyl-1H-pyrrolo[2,3-b]pyridin-3-yl]methylidene}-1-benzofuran-3(2H)-one] | –
16 | 6.81 | 6.68 | 7.77 | 230 to 238 °C | Cn1cc(/C=C2\Oc3cccc(O)c3C2=O)c2c(N3CCC(CN)CC3)ccnc21 [Compound 115, (2Z)-2-({4-[4-(aminomethyl)piperidin-1-yl]-1-methyl-1H-pyrrolo[2,3-b]pyridin-3-yl}methylene)-4-hydroxy-1-benzofuran-3(2H)-one] | –
17 | 7.17 | 6.55 | 9.22 | 322 to 324 °C | Cn1cc(/C=C2\Oc3cc(O)cc(O)c3C2=O)c2c(N3CCCCC3)ccnc21 [Compound 40, (2Z)-4,6-dihydroxy-2-[(1-methyl-4-piperidin-1-yl-1H-pyrrolo[2,3-b]pyridin-3-yl)methylene]-1-benzofuran-3(2H)-one] | –
18 | 8.15 | 7.68 | 9.70 | > 330 °C | Cn1cc(/C=C2\Oc3cc(O)cc(O)c3C2=O)c2c(-c3ccc(CO)cc3)ccnc21 [Compound 67, (2Z)-4,6-dihydroxy-2-({4-[4-(hydroxymethyl)phenyl]-1-methyl-1H-pyrrolo[2,3-b]pyridin-3-yl}methylene)-1-benzofuran-3(2H)-one] | –
19 | 8.10 | 7.62 | 8.82 | 340 °C | Cn1cc(/C=C2\Oc3cc(O)cc(O)c3C2=O)c2c(-c3ccc(Cl)nc3)ccnc21 [Compound 63, (2Z)-2-{[4-(6-chloropyridin-3-yl)-1-methyl-1H-pyrrolo[2,3-b]pyridin-3-yl]methylene}-4,6-dihydroxy-1-benzofuran-3(2H)-one] | –
20 | – | 6.83 | 7.80 | 220 °C (dec.) | CN1CC2CC1CN2c1ccnc2c1c(/C=C1\Oc3cccc(O)c3C1=O)cn2C (centres unmarked) [Compound 153, (2Z)-4-hydroxy-2-{[1-methyl-4-(5-methyl-2,5-diazabicyclo[2.2.1]hept-2-yl)-1H-pyrrolo[2,3-b]pyridin-3-yl]methylidene}-1-benzofuran-3(2H)-one] | –
21 | 7.96 | 7.15 | 10.00 | – | Cn1cc(/C=C2\Oc3cc(O)cc(O)c3C2=O)c2c(N3CC4CCC(C3)O4)ccnc21 [Compound 54, (2Z)-4,6-dihydroxy-2-{[1-methyl-4-(8-oxa-3-azabicyclo[3.2.1]oct-3-yl)-1H-pyrrolo[2,3-b]pyridin-3-yl]methylene}-1-benzofuran-3(2H)-one] | –
22 | 8.05 | 7.27 | 9.70 | – | Cn1cc(/C=C2\Oc3cc(O)cc(O)c3C2=O)c2c(-c3ccc(C(=O)N4CCCC4)cc3)ccnc21 [Compound 92, (2Z)-4,6-dihydroxy-2-({1-methyl-4-[4-(pyrrolidin-1-ylcarbonyl)phenyl]-1H-pyrrolo[2,3-b]pyridin-3-yl}methylene)-1-benzofuran-3(2H)-one] | –
